For two molecules, Ki and K inact results are on record in ChEMBL document CHEMBL1149973, “Inhibitory stereochemistry of N-chloroacetyl-N-hydroxyleucine methyl ester for thermolysin” (Bioorg Med Chem Lett, 1996).

Test [1] has as its target T1, Thermolysin (Bacillus thermoproteolyticus, UniProt P00800).
T1 sequence (P00800 whole entry): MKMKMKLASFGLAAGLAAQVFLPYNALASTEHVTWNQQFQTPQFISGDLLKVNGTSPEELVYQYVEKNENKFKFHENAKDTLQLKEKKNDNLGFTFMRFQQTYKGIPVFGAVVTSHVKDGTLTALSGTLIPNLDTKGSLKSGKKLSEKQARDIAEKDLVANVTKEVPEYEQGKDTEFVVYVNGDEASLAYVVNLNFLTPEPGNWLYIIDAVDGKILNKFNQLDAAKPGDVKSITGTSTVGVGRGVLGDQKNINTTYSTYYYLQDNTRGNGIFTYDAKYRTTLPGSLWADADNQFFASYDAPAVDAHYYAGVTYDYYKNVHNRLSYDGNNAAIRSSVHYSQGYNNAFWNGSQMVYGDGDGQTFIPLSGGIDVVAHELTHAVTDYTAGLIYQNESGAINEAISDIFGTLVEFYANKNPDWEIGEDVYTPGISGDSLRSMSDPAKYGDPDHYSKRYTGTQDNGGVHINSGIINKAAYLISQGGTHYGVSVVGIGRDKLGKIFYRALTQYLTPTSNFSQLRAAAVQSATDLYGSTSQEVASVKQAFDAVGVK
In words: Inhibitory activity against thermolysin expressed as Ki.

The target of test [2] is T2, Thermolysin (Bacillus thermoproteolyticus) (UniProt P00800).
T2 sequence (whole entry): T1 sequence (P00800 whole entry)
Description: Inhibitory activity against thermolysin expressed as kinact.

Take `COC(=O)C(CC(C)C)N(O)C(=O)CCl` (centres undefined): the inhibition constant Ki – broadly, a measure of affinity in units of concentration, obtained from inhibition or displacement – in test [1] came out at 7.5 mM. In test [2], this molecule yielded a K inact of 0.0075 s⁻¹.
In test [1], `COC(=O)[C@H](CC(C)C)N(O)C(=O)CCl` registered a Ki of 4.5 mM. This molecule displayed a K inact in test [2] of 0.009 s⁻¹.
